In patent US9988416B2, “Alkynyl nucleoside analogs as inhibitors of human rhinovirus” (NOVARTIS AG, priority 2016, dated 2018):

Assays:
[1] = tested on: HepG2; assay: Cox/SDH ratio assay in HepG2 cells; assay type: cell-based; conditions: Cellular assays (MP-Nuc); concentration giving Cox/SDH ratio <0.5, HepG2 cells
[2] = tested on: PC-3; assay: Cox/SDH ratio assay in PC-3 cells; assay type: cell-based; conditions: Cellular assays (MP-Nuc); concentration giving Cox/SDH ratio <0.5, PC-3 cells
[3] = tested on: PC3; assay: PC3 cytotoxicity assay; assay type: cell-based; conditions: 3 or 5 days at 37° C., CellTiter-Glo
Procedure: (§1) MT4 and PC3 Cytotoxicity Assay. Compounds were serially diluted in DMSO in half-logarithmic steps starting from 10 mM. 0.5 μL of serially diluted compound was transferred to the assay plates (Greiner cat#781080). Cells were added to the assay-ready compound plates in 50 μL of RPMI 1640 medium supplemented with 10% FBS (NCS Lot OS-161071), 1× penicillin/streptomycin solution (CellGro/Mediatech, Manassas, Va.; 30-002-CI), and incubated at 37° C. for 3 or 5 days. Control wells included DMSO alone (100% inhibition). Cell viability was determined using the CellTiter-Glo® Luminescent Cell Viability Assay (Promega, G7573) according to the manufacturer's protocol and a POLARstar Omega Luminometer (BMG Labtech).

[4] = tested on: HRV14; assay: HRV cytopathic effect (CPE) assay; assay type: cell-based; conditions: Human rhinovirus sp., H1-HeLa cells, 72 h at 33° C., CellTiter-Glo, read-out: Activity on HRV strains and other viruses: HRV14
Procedure: (§2) HRV Cytopathic Effect (CPE) Assay.
(§3) Compounds were serially diluted in DMSO in half-logarithmic steps starting from 5 mM. Of each dilution, 0.5 μL were transferred to the assay plates. H1-HeLa cells were added to the assay-ready compound plates in 45 μL DMEM supplemented with 0.1% BSA (Gibco, 15260), 1× penicillin/streptomycin solution (CellGro/Mediatech, Manassas, Va.; 30-002-CI), and 1× non-essential amino acids (CellGro; 25-025-CI) at 5000 cells/well into triplicate 384-well plates and incubated at 33° C. for 6 hours. Control wells included DMSO alone (100% inhibition) and DMSO plus virus (0% inhibition). After 6 h incubation at 33° C., 5 μL of human rhinovirus stock was added at an MOI that effectively kills 99% of cells within 72 hours. Plates were then incubated for 72 h at 33° C. Cell viability was determined using the CellTiter-Glo® Luminescent Cell Viability Assay (Promega, G7573) according to the manufacturer's protocol and a POLARstar Omega Luminometer (BMG Labtech).

[5] = tested on: HRV10; assay: HRV cytopathic effect (CPE) assay; assay type: cell-based; conditions: Human rhinovirus sp., H1-HeLa cells, 72 h at 33° C., CellTiter-Glo, read-out: Activity on HRV strains and other viruses: HRV10
Procedure: as §2, §3

[6] = tested on: HRV16; assay: HRV cytopathic effect (CPE) assay; assay type: cell-based; conditions: Human rhinovirus sp., H1-HeLa cells, 72 h at 33° C., CellTiter-Glo, read-out: Activity on HRV strains and other viruses: HRV16
Procedure: as §2, §3

[7] = tested on: HRV29; assay: HRV cytopathic effect (CPE) assay; assay type: cell-based; conditions: Human rhinovirus sp., H1-HeLa cells, 72 h at 33° C., CellTiter-Glo, read-out: Activity on HRV strains and other viruses: HRV29
Procedure: as §2, §3

[8] = tested on: HRV86; assay: HRV cytopathic effect (CPE) assay; assay type: cell-based; conditions: Human rhinovirus sp., H1-HeLa cells, 72 h at 33° C., CellTiter-Glo, read-out: Activity on HRV strains and other viruses: HRV86
Procedure: as §2, §3

[9] = tested on: HRV39; assay: HRV cytopathic effect (CPE) assay; assay type: cell-based; conditions: Human rhinovirus sp., H1-HeLa cells, 72 h at 33° C., CellTiter-Glo, read-out: Activity on HRV strains and other viruses: HRV39
Procedure: as §2, §3

[10] = tested on: MT4; assay: MT4 cytotoxicity assay; assay type: cell-based; conditions: N = 2; 3 or 5 days at 37° C., CellTiter-Glo
Procedure: as §1

[11] = tested on: Dengue virus (PBMCs); assay: Activity on Dengue virus in PBMCs; assay type: cell-based; conditions: PBMC, read-out: Activity on HRV strains and other viruses: Dengue virus (PBMCs)
[12] = tested on: HepG2; assay: Cytotoxicity (CC50 assay) in HepG2; assay type: cell-based; conditions: N = 7+; CC50, 72 hours, Cell-Titer Glo
Procedure: (§4) Cytotoxicity (CC50 Assay) in HepG2 & K562 White TC grade Greiner 384-well assay plates were stamped with 0.5 ul of compound in 90% DMSO/10% water. HepG2 cells were trypsinized and collected into 50 ml falcon tube. K562 suspension cells were collected in 50 ml falcon tube. Both tubes containing cells were spun in benchtop centrifuge at 1200 rpm for 5 mins. The supernatant was discarded and the cell pellet was re-suspended in fresh culture media (HepG2: DMEM:F12 mix+10% FBS+1% Pen/Strep & K562: IMDM+10% FBS+1% Pen-Strep). Cells were counted using a hemocytometer and cells were diluted to a working suspension of 50,000 cells/ml for HepG2, and 20,000 cells/ml for K562. 50 ul of cells suspension was added to each well of 384-assay plate. Assay plates were incubated at 37° C., 5% CO2, 90% humidity incubator for 72 hours. Assay plates were then treated with 25 ul of Promega's Cell-Titer Glo® reagent, and incubated at room temperature for 10 mins. Plates were read on PolarStar-Omega using the Luminescence setting and a Gain of 3300.

[13] = tested on: HRV15 (c-type); assay: HRV replicon assay (Group C replicon); assay type: cell-based; conditions: Human rhinovirus sp., HRV15, H1-HeLa, read-out: Activity on HRV strains and other viruses: HRV15 (c-type)
Procedure: This assay was based on the Group C replicon previously described (Mello et al, Antimicrobial Agents and Chemotherapy, 2014) with the modification that the P1 region was replaced with the cDNA encoding Nanoluciferase (Promega Corporation, Madiso, Wis.) Compounds were serially diluted in DMSO in half-logarithmic steps starting from 5 mM. Of each dilution, 0.5 μL were transferred to the assay plates. H1-HeLa cells were trypsinized, washed twice with ice-cold OptiMem® Gibco, 31985), resuspended at 1.5×10^7 cells/ml in OptiMem®, and stored on ice. A total of 6×10^6 cells were electroporated (270 V, 950 μF, ∞ resistance) with 25 ng of in vitro-transcribed RNA and allowed to rest on ice for 10 min. Electroporated cells were then diluted DMEM supplemented with 0.1% BSA (Gibco, 15260), 1× penicillin/streptomycin solution (CellGro/Mediatech, Manassas, Va.; 30-002-CI) to a final concentration 4×10^5 cells/ml. 50 μl of cells were then added to the compounds then incubated for […] at 33° C. Luciferase signal was then measured after 48 h using the NanoGlo® Detection Kit Assay (Promega, N1150) according to the manufacturer's protocol and a POLARstar Omega Luminometer (BMG Labtech).

[14] = tested on: Chikungunya virus; assay: Activity on Chikungunya virus; assay type: cell-based; conditions: read-out: Activity on HRV strains and other viruses: Chikungunya virus
[15] = tested on: K562; assay: Cytotoxicity (CC50 assay) in K562; assay type: cell-based; conditions: N = 3; CC50, 72 hours, Cell-Titer Glo
Procedure: as §4

[16] = target: T1, Human Mitochondrial RNA polymerase (POLRMT) (Homo sapiens, UniProt O00411); assay: Human mitochondrial RNA polymerase single nucleotide incorporation assay; assay type: biochemical; conditions: 500 μM nucleoside triphosphate, 5 min at RT
T1 construct: Purified full length POLRMT (Enzymax, USA); purchased Enzymax
Procedure: Human Mitochondrial RNA Polymerase Assay.
Human mitochondrial RNA polymerase (POLRMT) single nucleotide Incorporation assay was adapted from Arnold et al. (Sensitivity of mitochondrial transcription and resistance of RNA polymerase II dependent nuclear transcription to antiviral ribonucleosides. PloS Pathogen 8(11):e1003030.). Briefly, elongation complexes were formed by incubating 500 nM POLRMT with 250 nM annealed DNA template/RNA primer duplex, in assay buffer (25 mM Tris-HCl, pH 8, 50 mM KCl, 10 mM MgCl2, 1 mM dithiothreitol, 0.2 U/μL RNasin) for 1.5 min at room temperature (RT), followed by rapid mixing with 500 μM nucleoside triphosphate substrate or inhibitor. Purified full length POLRMT (Enzymax, USA) was stored in 10 mM Tris-HCl (pH 8.0), 1 mM DTT, 100 mM NaCl and 20% glycerol. The volume of POLRMT added to any reaction was always less than or equal to one-tenth the total volume. Primer-template consisted of a 5′-FAM labeled […] RNA oligonucleotide primer SEQ. ID. NO. 2 (5′-UUUUGCCGCGCC-3′) annealed to the appropriate 18-mer DNA template to allow single addition of A, C, G or U ribonucleotide (Arnold et al. 2012). […] Electrophoresis was performed in 1×TBE buffer at 600 V. Gels were visualized with a Typhoon Imager under fluorescence detection mode and quantified with the Image Quant TL Software (GE Healthcare, Piscataway, N.J.). […]

T1 sequence (O00411 42-1230): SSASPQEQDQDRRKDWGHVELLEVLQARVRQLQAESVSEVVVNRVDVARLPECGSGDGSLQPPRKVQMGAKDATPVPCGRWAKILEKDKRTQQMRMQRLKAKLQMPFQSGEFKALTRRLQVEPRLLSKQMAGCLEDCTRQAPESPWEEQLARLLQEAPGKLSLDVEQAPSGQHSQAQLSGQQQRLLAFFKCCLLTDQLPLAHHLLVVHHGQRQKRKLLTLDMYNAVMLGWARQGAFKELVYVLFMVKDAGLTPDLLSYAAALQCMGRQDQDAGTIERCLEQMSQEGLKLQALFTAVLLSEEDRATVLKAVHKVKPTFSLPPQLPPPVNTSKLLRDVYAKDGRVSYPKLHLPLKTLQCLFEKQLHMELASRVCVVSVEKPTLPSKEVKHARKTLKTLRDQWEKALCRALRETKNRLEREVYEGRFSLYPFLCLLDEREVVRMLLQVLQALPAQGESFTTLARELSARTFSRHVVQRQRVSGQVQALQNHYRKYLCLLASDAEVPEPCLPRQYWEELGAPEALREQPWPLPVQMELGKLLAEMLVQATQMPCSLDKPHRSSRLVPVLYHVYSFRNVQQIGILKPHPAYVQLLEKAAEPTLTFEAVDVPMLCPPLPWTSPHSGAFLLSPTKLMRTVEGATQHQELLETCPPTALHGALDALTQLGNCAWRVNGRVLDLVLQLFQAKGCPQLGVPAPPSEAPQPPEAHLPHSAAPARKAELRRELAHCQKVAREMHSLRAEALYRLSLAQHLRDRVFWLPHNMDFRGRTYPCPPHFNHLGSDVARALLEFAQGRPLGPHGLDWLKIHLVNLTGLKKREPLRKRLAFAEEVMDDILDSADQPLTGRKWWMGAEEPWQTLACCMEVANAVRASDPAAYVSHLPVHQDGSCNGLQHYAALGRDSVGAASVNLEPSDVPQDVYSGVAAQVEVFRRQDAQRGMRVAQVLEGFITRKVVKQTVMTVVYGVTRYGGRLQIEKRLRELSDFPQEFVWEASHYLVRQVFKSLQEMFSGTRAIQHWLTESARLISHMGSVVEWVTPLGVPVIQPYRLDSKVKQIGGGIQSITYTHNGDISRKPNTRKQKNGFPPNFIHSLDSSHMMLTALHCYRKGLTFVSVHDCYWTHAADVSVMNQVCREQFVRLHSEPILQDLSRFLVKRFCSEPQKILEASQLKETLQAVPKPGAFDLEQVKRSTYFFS

[N-]=[N+]=N[C@]1(CO)O[C@@H](n2ccc(N)nc2=O)[C@H](O)[C@@H]1O [4′-Azido cytidine, 4′-azido-cytidine, reference compound]
HepG2 Cox/SDH ratio <0.5 [1]: 200 µM | PC-3 Cox/SDH ratio <0.5 [2]: 25 µM

CC#C[C@]1(O)[C@H](n2ccc3c(N)ncnc32)O[C@](F)(COP(=O)(OCOC(=O)OC(C)C)OCOC(=O)OC(C)C)[C@H]1O [Example 2, ((2S,3S,4R,5R)-5-(4-amino-7H-pyrrolo[2,3-d]pyrimidin-7-yl)-2-fluoro-3,4-dihydroxy-4-(prop-1-yn-1-yl)tetrahydrofuran-2-yl)methyl bis(((1-isopropoxycarbonyl)oxy)methyl) phosphate]
HepG2 Cox/SDH ratio <0.5 [1]: >200 µM | Cytotoxicity Assay Results: PC3 [3]: >200 µM | EC50 [4]: 700 nM | EC50 [5]: 800 nM | EC50 [6]: 600 nM | EC50 [7]: 700 nM | EC50 [8]: 400 nM | EC50 [9]: 600 nM | Cytotoxicity Assay Results: MT4 [10]: >100 µM | EC50 [11]: 2050 nM | Cytotoxicity Assay Results: HepG2 [12]: >100 µM | EC50 [13]: 700 nM | EC50 [14]: 1000 nM | Cytotoxicity Assay Results: K562 [15]: >100 µM | PC-3 Cox/SDH ratio <0.5 [2]: >200 µM

CC#C[C@]1(O)[C@H](n2ccc3c(N)ncnc32)O[C@](F)(COP(=O)(O)OP(=O)(O)OP(=O)(O)O)[C@H]1O [Example 3]
Human Mitochondrial RNA polymerase incorporation [16]: 1.9% (Examples)

C[C@@]1(F)[C@H](O)[C@@H](COP(=O)(O)OP(=O)(O)OP(=O)(O)O)O[C@H]1n1ccc(=O)[nH]c1=O [Sofosbuvir TP, reference compound]
Human Mitochondrial RNA polymerase incorporation [16]: 1.9% (Sofosbuvir TP)
